{"source": "patent US20240424103A1", "about": "“ANTICANCER AGENT, PRODRUG OF ANTICANCER AGENT, METHOD FOR KILLING CANCER CELL IN VITRO, CANCER […], AND CANCER TREATMENT DEVICE” (NATIONAL INSTITUTE OF ADVANCED INDUSTRIAL SCIENCE AND …, priority 2021, published 2024)", "key": {"RGK-KO cells": {"tested_on": "RGK-KO cells", "assay": "Proton beam irradiation of RGK-KO cells cultured on ^15N_5-ALA-containing culture medium, surviving fraction by fluorescent protein image and DAPI staining", "type": "cell-based, rat", "conditions": "^15N_5-ALA in medium 24 hours before irradiation, charge amount 4.0 nC, 1.3 MeV", "description": "The RGK-KO cells and RGM-GFP cells cultured on a culture medium containing ^15N_5-ALA and the RGK-KO cells and RGM-GFP cells cultured on a culture medium not containing ^15N_5-ALA were in each instance held sealed in a vacuum along with the culture medium and were irradiated with a proton beam at a prescribed ion charge amount. With regard to the proton beam energy, considering the attenuation of the proton beam energy by the Torelina film and the culture solution sealed in the vacuum, the sample was irradiated at 1.3 MeV to match the 1.21 MeV resonance energy.\nThe upper sections show images of RGM-GFP cells made to metabolize a fluorescent protein by genetic recombination; the lower sections each show photographs in which the dead cells are identified by the DAPI staining method, which stains the DNA in the nucleus of dead cells. […]\nThe photographs in FIG. 20 show the case of a proton beam irradiation amount of charge of 4.0 nC for both cells. Genes for the metabolism of fluorescent protein are also incorporated in the RGK-KO cells, and the cells present a red color when observed with a fluorescence microscope. […]"}, "[1]": {"tested_on": "rat gastric mucosal-derived cancer cells (RGK-KO) versus rat gastric mucosal-derived cells (RGM-GFP)", "assay": "Cellular intake of ^15N_5-ALA by cancer cells and normal cells, quantitated by 4.43 MeV gamma rays from the ^15N resonance nuclear reaction", "type": "cell-based", "conditions": "24 hours after the addition of ^15N_5-ALA; 1 mmol/L in culture medium; RGK-KO vs RGM-GFP", "procedure": "Rat gastric mucosal-derived cells (RGM-GFP) were prepared as normal cells and rat gastric mucosal-derived cancer cells (RGK-KO) were prepared as cancer cells, and the difference in cellular intake of ^15N_5-ALA between the RGM-GFP cells and RGK-KO cells was confirmed as follows. The rat gastric mucosal-derived cells and rat gastric mucosal-derived cancer cells are both derived from the rat and are widely used in research on anticancer agents because they have the same gene sequence (refer to Non-Patent Documents 6 and 7).\nThe RGM-GFP cells and RGK-KO cells were cultured for 3 or 4 days on a culture solution adapted to each and were grown to 80% confluence; this was followed by the addition of ^15N_5-ALA and the amount of ^15N intake per cell with elapsed time was measured. […] The cells, which had grown with attachment to the bottom of the Petri dish, were detached from the Petri dish by the addition of trypsin, and the concentration of the liberated cells was measured.\nThe concentration was adjusted, and 10^5 cells/2 μL was dripped onto a crystalline silicon substrate and drying was carried out. […] The 4.43 MeV gamma radiation emitted by this resonance nuclear reaction with ^15N was measured using a Bi4Ge3O12 (BGO) detector. […]\nThe specific procedure for quantitating the ^15N_5-ALA intake by the RGM-GFP cells and RGK-KO cells was as follows. […]"}}, "note": "Values joined by “and” are separate entries in the source; they are usually repeats but may differ in a detail not shown here. Identical values can stand only once."}
{"molecule": "[15NH2]CC(=O)CCC(=O)O", "note": "[^15N_5-ALA, 5-aminolevulinic acid in which the nitrogen is nitrogen-15]", "values": [{"measurement": "surviving fraction immediately after (within three hours) proton beam irradiation", "setting": "RGK-KO cells", "value": "73.5% and 85.5%"}, {"measurement": "intake of ^15N_5-ALA by cancer cells relative to the intake by the normal cells", "setting": "[1]", "value": "at least 5 times"}]}
